This is an account of results in PMC4301629 (PLoS ONE, 2015).

The target of assay [1] is T1, α1A-AR (Homo sapiens, UniProt P35348).
T1 sequence (P35348 1-466): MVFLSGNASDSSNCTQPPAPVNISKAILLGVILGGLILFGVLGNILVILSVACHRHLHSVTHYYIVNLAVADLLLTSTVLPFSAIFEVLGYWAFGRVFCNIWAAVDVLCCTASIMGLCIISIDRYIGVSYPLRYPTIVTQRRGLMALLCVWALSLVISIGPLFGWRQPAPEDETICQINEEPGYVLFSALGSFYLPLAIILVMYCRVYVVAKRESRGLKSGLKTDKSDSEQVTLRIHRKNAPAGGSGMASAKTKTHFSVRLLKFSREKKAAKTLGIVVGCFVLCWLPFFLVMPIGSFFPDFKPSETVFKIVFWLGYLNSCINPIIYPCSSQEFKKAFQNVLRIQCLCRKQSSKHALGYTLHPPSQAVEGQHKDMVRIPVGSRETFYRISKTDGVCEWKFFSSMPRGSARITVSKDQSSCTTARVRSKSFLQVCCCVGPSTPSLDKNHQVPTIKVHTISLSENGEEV
Briefly: IP accumulation (IP-One HTRF) in α1A-AR transduced HEK-293/EBNA cells. It is filed as cell-based. Details: expressed in transfected cells; host or cells: HEK-293/EBNA (baculovirus transduction, NaBu induction). The conditions noted are these: α1A-AR transduced HEK-293/EBNA; Iso up to 10 mM. The method, then:
(§1) Prior to experiments, cells were transduced with baculovirus strains designed for transient expression of α1A-AR or aldehyde oxidase (negative control). This was performed by incubating cells with virus (MOI 100–150) for 3 to 4 h, followed by exchange into fresh serum free growth medium supplemented with 4 mM sodium butyrate (NaBu). Cells were grown for another 14 to 18 h and then examined for agonist-evoked responses in transient Ca^2+ release, IP accumulation or pERK activation assays. The surface receptor expression density was determined by flow cytometry via immunofluorescence labeling of an N-terminal HA epitope tag on the receptor and radioligand binding in partially purified membranes.
After 10–20 minutes, 10 μL of agonist was added followed by incubation for 5 to 30 minutes. Stimulation was stopped by addition of lysis buffer. Second messenger levels were determined using a homogeneous immunoassay method with time-resolved FRET detection (IP-One HTRF, Cisbio International) according to protocols provided by the supplier. Sample fluorescence was measured with a Nanoscan plate reader (IOM, Berlin). Each data point represents the average of quadruplicate determinations and each experiment was performed at least two times independently.

Another assay deals with HEK293/EBNA cells. In words: IP accumulation (IP-One HTRF) in untransduced HEK-293/EBNA cells. The format is cell-based.
Assay [2] relates to α1A-AR. In words: Ca2+ transient response (FLIPR, fluo3) in α1A-AR transduced HEK-293/EBNA cells. It is filed as cell-based. The conditions noted are these: 100 μM Iso, α1A-AR_HEK-293/EBNA. The procedure: as §1
Cells were resuspended in Hank’s balanced salt solution (Invitrogen) supplemented with 2 mM CaCl2, 10 mM HEPES pH 7.4, 2.5 mM probenecid, plus 1g/L each of glucose and bovine serum albumin (BSA), and seeded in poly-D-lysine coated 96-well black plates with transparent bottom (Costar) at a density of 50,000 cells/0.1 mL per well. Cells were then incubated for 1 h at 37°C with an additional 0.1 mL of buffer containing 4 μM fluo3-AM that was diluted from a stock solution containing 1 mM fluo3-AM dye in DMSO with 10% pluronic acid. After dye loading incubation, plates were washed twice with 100 μL of buffer and refilled with 100 μL of assay buffer. In experiments testing the effect of antagonists, 25 μL of buffer from wells of washed cells were replaced with 25 μL of vehicle or 4× antagonist solution. Pre-incubation of ligand with dye-loaded cells proceeded for 5–30 minutes immediately prior to measurements of agonist-evoked responses. Agonist-evoked Ca^2+ mobilization responses of cell populations were monitored at room temperature simultaneously in all wells of the assay plate using the plate-imaging fluorometric reader FLIPR (MDS Analytical Technologies, Sunnyvale, CA). […] The amplitudes of Ca^2+ transient responses are reported as ΔF/F0, or fold-change in Ca^2+ dye fluorescence relative to the baseline signal ΔF/F0 = (F-F0)/F0 +1 (where ΔF is maximal fluorescence intensity observed following agonist application, F0 = baseline fluorescence, or average intensity measured over the 10 s interval prior to agonist application). Image acquisition rates were varied from 1 Hz during the first 100 s of measurements to 0.5 Hz for the remaining time of the recording.
Graphs shown reflect either pooled or representative data (see figure legends). For concentration-response analysis, results from Ca^2+ mobilization experiments were plotted as ΔF/F0 vs. agonist concentration and fit to a sigmoidal concentration-response equation using the GraphPad Prism software package. In cases where biphasic concentration-response curves were observed data were fit to a two-site concentration-response model: F(X)=R0+(Rmax−R0)[Fr1/(1+10^X-logEC50,1)+(1−Fr1)/(1+10^X-logEC50,2)] (1) , where X is the logarithm of the agonist concentration, R0 and Rmax are respectively the response minimum and maximum; Fr1 is the response fraction attributable to receptor characterized by half effective concentration of the first response phase (EC50,1), with the reminder response attributable to the second half effective concentration (EC50,2). For radioligand binding experiments, B max values were calculated from maximum binding using the equation B max = (SB × ([…] + [L])/[L]), where SB is the specific binding expressed as fmol per mg of membrane protein, and [L] is the ligand concentration.

The target in another assay is β3-AR. The settings on record: in presence of GTP; cited from earlier work.

`CC(C)NCC(O)c1ccc(O)c(O)c1` (stereo not drawn) [Iso, isoproterenol]: the IP accumulation entry on α1A-AR [1] is “no significant accumulation of IP was detected”. Also, the “EC50 IP” value with HEK293/EBNA cells (HEK293/EBNA untransduced) is “BQL”. In the assay on HEK293/EBNA cells (untransduced cells, data not shown), the IP formation entry is “not detectable”. Further, in the assay with α1A-AR [2], the “decline from peak amplitude within 100 sec” value is reported as above 75% and the “delay from addition of agonist to the rise in Ca2+” value lay within 5 to 10 s. In addition, at β3-AR, the Ki was 1600 nM.
